Test results published in patent US20150368236A1, “2-(PYRIDIN-3-YL)-5-HETARYL-THIAZOLE COMPOUNDS CARRYING AN IMINE OR IMINE-DERIVED SUBSTITUENT FOR COMBATING INVERTEBRATE PESTS” (BASF SE, priority 2012, published 2015).

What was measured:
Assay in all cases: whole plant or invertebrate
Type in all cases: in vivo
[1] = test system: Cotton Aphid (Aphis gossypii); conditions: 120 h, infested cotton plants sprayed, after 5 days, read-out: mortality in comparison with untreated controls
Method: (§1) The active compounds were formulated in cyclohexanone as a 10′ 000 ppm solution supplied in 1.3 ml ABgene® tubes. These tubes were inserted into an automated electrostatic sprayer equipped with an atomizing nozzle and they served as stock solutions for which lower dilutions were made in 1:1 (vol:vol) water:aceton. A nonionic surfactant (Kinetic®) was included in the solution at a volume of 0.01% (v/v).
Cotton plants at the cotyledon stage were infested with aphids prior to treatment by placing a heavily infested leaf from the main aphid colony on top of each cotyledon. Aphids were allowed to transfer overnight to accomplish an infestation of 80-100 aphids per plant and the host leaf was removed. The infested plants were then sprayed by an automated electrostatic plant sprayer equipped with an atomizing spray nozzle. The plants were dried in the sprayer fume hood, removed from the sprayer, and then maintained in a growth room under fluorescent lighting in a 24-hr photoperiod at 25° C. and 20-40% relative humidity. Aphid mortality on the treated plants, relative to mortality on untreated control plants, was determined after 5 days.

[2] = test system: vetch aphid (Megoura viciae); conditions: foliar, 120 h, sprayed broad bean leaf disks, adult aphids, 5 days, read-out: mortality in comparison with untreated controls
Method: For evaluating control of vetch aphid (Megoura viciae) through contact or systemic means the test unit consisted of 24-well-microtiter plates containing broad bean leaf disks.
The compounds were formulated using a solution containing 75% v/v water and 25% v/v DMSO. Different concentrations of formulated compounds were sprayed onto the leaf disks at 2.5 μl, using a custom built micro atomizer, at two replications.
After application, the leaf disks were air-dried and 5 to 8 adult aphids were placed on the leaf disks inside the microtiter plate wells. The aphids were then allowed to suck on the treated leaf disks and were incubated at about 23±1° C. and about 50±5% relative humidity for 5 days. Aphid mortality and fecundity were then visually assessed.

[3] = test system: green peach aphid (Myzus persicae); conditions: 72 h, in aphid diet under artificial membrane, adult aphids, 3 days, read-out: mortality in comparison with untreated controls
Source text: For evaluating control of green peach aphid (Myzus persicae) through systemic means the test unit consisted of 96-well-microtiter plates containing liquid artificial diet under an artificial membrane.
The compounds were formulated using a solution containing 75% v/v water and 25% v/v DMSO. Different concentrations of formulated compounds were pipetted into the aphid diet, using a custom built pipetter, at two replications.
After application, 5 to 8 adult aphids were placed on the artificial membrane inside the microtiter plate wells. The aphids were then allowed to suck on the treated aphid diet and were incubated at about 23±1° C. and about 50±5% relative humidity for 3 days. Aphid mortality and fecundity was then visually assessed.

[4] = test system: Cowpea Aphid (Aphis craccivora); conditions: colonized cowpea plants sprayed, population reduction assessed after 24, 72 and 120 hours, read-out: mortality in comparison with untreated controls
Method: The active compound was dissolved at the desired concentration in a mixture of 1:1 (vol:vol) distilled water:acetone. The test solution was prepared at the day of use. Potted cowpea plants colonized with approximately 100 to 150 aphids of various stages were sprayed after the pest population had been recorded. Population reduction was assessed after 24, 72, and 120 hours.

[5] = test system: Silverleaf Whitefly (Bemisia Argentifolii); conditions: 72 h, sprayed cotton plants, whitefly adults, 3 days after treatment, read-out: mortality in comparison with untreated controls
Method: as §1, with “10,000” for “10′ 000”
Cotton plants at the cotyledon stage (one plant per pot) were sprayed by an automated electrostatic plant sprayer equipped with an atomizing spray nozzle. The plants were dried in the sprayer fume hood and then removed from the sprayer. Each pot was placed into a plastic cup and 10 to 12 whitefly adults (approximately 3 to 5 days old) were introduced. The insects were collected using an aspirator and 0.6 cm, nontoxic Tygon® tubing (R-3603) connected to a barrier pipette tip. The tip, containing the collected insects, was then gently inserted into the soil containing the treated plant, allowing insects to crawl out of the tip to reach the foliage for feeding. Cups were covered with a reusable screened lid (150-micron mesh polyester screen PeCap from Tetko, Inc.). […] Mortality was assessed 3 days after treatment, compared to untreated control plants.

CON=Cc1cccc(-c2cnc(-c3cccnc3)s2)n1 [Compound 1-1, 6-(2-Pyridin-3-yl-thiazol-5-yl)-pyridine-2-carbaldehyde-O-methyloxime]
≥ 75%: mortality at 300 ppm [1] | mortality at 800 ppm [2] | mortality at 800 ppm [3] | mortality at 300 ppm [4] | mortality at 300 ppm [5]

C(=NOc1ccccc1)c1cccc(-c2cnc(-c3cccnc3)s2)n1 [Compound 1-10, 6-(2-Pyridin-3-yl-thiazol-5-yl)-pyridine-2-carbaldehyde-O-phenyloxime]
≥ 75%: mortality at 800 ppm [2] | mortality at 300 ppm [4]
